SMILES strings stand for the structures. Active and inactive are the calls of the source. The rule behind the calls is not given here.

The first assay deals with MEK5 PB1 domain binding to MEKK2 (MAP3K2) mutant PB1, human. As to the kind of experiment: inhibitors of MEK5 binding to mutant MEKK2, dose response, biochemical, bead multiplex flow cytometry (AID 1895). The settings on record: Bead-based multiplex flow cytometry.
Regarding `CCCCCCCCCC[N+](C)(C)CC/C=C1/c2ccccc2Sc2ccc(Cl)cc21`, the EC50 was > 30 µM (inactive).

For the compound `COc1ccc2[nH]c3c(C)c4ccncc4c(C)c3c2c1`, the EC50 was > 30 µM (inactive).

As to `CC(C)N=c1cc2n(-c3ccc(Cl)cc3)c3ccccc3nc-2cc1Nc1ccc(Cl)cc1`, the EC50 result was “inactive”.

As to `CC(=O)c1c(C)[nH]c(C(=O)NC2=NCCS2)c1C`, the EC50 is > 30 µM (inactive).

As to `C#CCOCCOCCOCCNc1nc(N2CCN(C(=O)[C@H](Cc3ccc(O)cc3)n3cc([C@@H](N)CC(C)C)nn3)CC2)nc(N2CCN(C(=O)[C@H](Cc3cc4ccccc4[nH]3)n3cc([C@@H](N)CC(C)C)nn3)CC2)n1`, the EC50 is > 30 µM (inactive).

`C#CCOCCOCCOCCNc1nc(N2CCN(C(=O)C(Cc3ccc(O)cc3)n3cc(C(N)CC(C)C)nn3)CC2)nc(N2CCN(C(=O)C(Cc3cc4ccccc4[nH]3)n3cc(C(N)Cc4ccc(O)cc4)nn3)CC2)n1` (stereo not given): the EC50 was 12.8 µM.

Take `CCN1CCN(Cc2ccc(NC(=O)c3cc(NC(=O)c4cncc(-c5cccs5)c4)cc(OC)c3)cc2C(F)(F)F)CC1`: the EC50 is > 30 µM (inactive).

As for `Nc1ccc(Nc2ccccc2N)cc1`, the EC50 was > 30 µM (inactive).

In the case of `COc1ccc(CSc2n[nH]c(C)n2)cc1[N+](=O)[O-]`, the EC50 is > 30 µM (inactive).

For the compound `COc1ccc(-c2[nH]ncc2CN2CCCCCCC2)c(OC)c1`, the EC50 is > 30 µM (inactive).

In the case of `C#CCOCCOCCOCCNc1nc(N2CCN(C(=O)[C@H](Cc3cc4ccccc4[nH]3)n3cc([C@@H](N)C(C)CC)nn3)CC2)nc(N2CCN(C(=O)[C@H](Cc3cc4ccccc4[nH]3)n3cc([C@@H](N)CC(C)C)nn3)CC2)n1` (stereo not given in full), the EC50 was 3.62 µM.

Regarding `C=CC#CC[N+]1(CC#Cc2ccccc2)CCOCC1`, the EC50 is > 30 µM (inactive).

Turning to `CCC(=C/c1sc2ccc3ccccc3c2[n+]1C)/C=C1\Sc2ccc3ccccc3c2N1C`, the EC50 entry is “inactive”.

With `CNc1nc(-c2c[nH]c3ccccc23)cs1`, the EC50 is > 30 µM (inactive).

For the compound `C=CCN1C(=O)/C(=C/c2ccc(-c3ccc(F)cc3)o2)SC1=S`, the EC50 entry was “inactive”.

Take `CCCSc1ncnc2sc(C)c(C)c12`: the EC50 is > 30 µM (inactive).

For `CCCCCc1cc(=O)oc2c(C(CCN3CCCCC3)c3ccc4c(c3)OCO4)c(OC)cc(OC)c12` (stereo not given), the EC50 was > 30 µM (inactive).

On to `COCc1c(C#N)c(NCCc2ccccc2)nc(C)c1[N+](=O)[O-]`, for which the EC50 is > 30 µM (inactive).

For the compound `O=C1c2ccccc2-c2onc3ccc(NCc4ccco4)c1c23`, the EC50 was > 30 µM (inactive).

Consider `CCCN1C(=O)/C(=C\C=C2/Sc3ccccc3N2CC)SC1=S`, for which the EC50 entry is “inactive”.

Regarding `COc1ccc(-n2nc3c(N)n[nH]c3cc2=O)cc1`, the EC50 was > 30 µM (inactive).

As for `CCOc1ccc(C2=C/C(=C/c3cccnc3)C(=O)O2)cc1`, the EC50 is > 30 µM (inactive).

For the compound `S=C(Nc1cccc(Cl)c1)N(CCCN1CCCC1)Cc1cccn1Cc1ccc(Cl)cc1`, the EC50 was 5.85 µM.

In the case of `COc1ccc(Cn2c(SCc3ccccc3C)nc3cc(OC)c(OC)cc3c2=N)cc1`, the EC50 is > 30 µM (inactive).

For the compound `CCCCCc1cc(=O)oc2c(C(CCN3CCCC3)c3ccc(N(C)C)cc3)c(OC)cc(OC)c12` (stereo not given), the EC50 was 26.4 µM.

Regarding `Cc1ccc(CN2CCSc3ccc(C(=O)NC4CCN(Cc5ccccc5)CC4)cc32)cc1`, the EC50 was 4.92 µM.

As to `CCOC(=O)C1=C(c2ccccc2)NC(N)=NC1c1ccc(OCc2ccc(C(=O)OC)cc2)cc1` (stereo not given), the EC50 is 2.38 µM.

Turning to `O=C1c2ccccc2-c2onc3ccc(NCCCn4ccnc4)c1c23`, the EC50 was > 30 µM (inactive).

The assay is the same for the next values; noted with them: Bead-based multiplex flow cytometry, measured here: Ki for PB1 binding.
`CCC(=C/c1sc2ccc3ccccc3c2[n+]1C)/C=C1\Sc2ccc3ccccc3c2N1C` had a Ki of 140 nM.

`CCCN1C(=O)/C(=C\C=C2/Sc3ccccc3N2CC)SC1=S`: the Ki is 2610 nM.

(Values after PubChem BioAssay AID1895 (NMMLSC, 2009).)
